Results from patent publication US11718628B2, “SREBP inhibitors comprising a 6-membered central ring” (Capulus Therapeutics, LLC, priority 2018, dated 2023).
Read-outs that look alike come from different tables or passages of the source.

Tests used:
[1] = Log D by octanol/aqueous buffer partitioning; type: physicochemical; conditions: 1-octanol/aqueous buffer; pH 7.4, 1-octanol/buffer; read-out: LogD
Description: The Log D of selected compounds was evaluated by octanol/aqueous buffer partitioning. 500 μL of organic phase (1-octanol) was added to each well of a 2 mL deep well plate, followed by 500 μL of buffer and 15 μL of test compound in DMSO (0.15 mM). The plate was vortexed for 10 seconds and incubated at room temperature for 1 hr on a plate shaker at 200 rpm. After incubation, the samples were allowed to equilibrate for 20 min and then centrifuged at 4000 rpm for 30 min for complete phase separation. The distribution of test compound in buffer and octanol phase was analyzed by HPLC-UV. Log D=Log (Area of Octanol/Area of Buffer).

[2] = In vivo pharmacokinetic properties in rats (IV and PO); set-up: species or system male Sprague Dawley rats; conditions: male, Sprague Dawley, rat, plasma; for clearance: read-out: Intravenous Delivery (IV) CL; for Vd: read-out: Intravenous Delivery (IV) Vd; for bioavailability: PO 10 mg/kg vs IV 2 mg/kg, read-out: % F (Bioavailability of oral delivery); for Tmax: read-out: Oral Administration (PO) Tmax
How it was run: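 Male Sprague Dawley rats received 2.00 mg/kg IV via the tail vein, with plasma sampled from a cannulated jugular vein from 0.083 to 24 h. Oral dosing was 10 mg/kg in rats or C57BL/6J mice, sampled at 0.25-24 h by jugular cannula (rats) or retro-orbital plexus (mice).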

[3] = In vivo pharmacokinetic properties in mice (IV and PO); set-up: species or system C57BL/6J mice; conditions: C57BL/6J, mouse, in vivo
How it was run: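 Male C57BL/6J mice received 10 mg/kg orally; plasma sampled by retro-orbital capillary at 0.25–24 h. IV dosing described at 2.00 mg/kg via tail vein, plasma sampled 0.083–24 h.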

[4] = system: liver gene expression (ACACA, ACLY, FASN, LSS, PNPLA3); test: Liver gene expression in mice after oral administration; type: in vivo; conditions: 30 mpk, vs vehicle
Description: (§1) The pharmacodynamic properties of selected compounds were evaluated in mice. The animals were housed in cages with clean bedding, and maintained and monitored for good health in accordance with Test Facility SOPs and at the discretion of the laboratory animal veterinarian. Certified rodent diet was provided. Food and water was available ad libitum. Environmental controls for the animal room were set to maintain a temperature of 22° C. to 25° C., humidity of 40-70% RH, and a 12-hour light/[…]. Normal healthy animals certified by the attending veterinarian were selected and acclimatized for minimum three days prior to initiation of study. Animals were identified with body markings.
(§2) Aliquots of the compounds being evaluated were weighed and triturated with 0.5% methylcellulose (with the addition of 5% N-methyl pyrrolidone when required to remove clumping, as for Z-806) to an appropriate dose concentration. Vials were labeled with the information about study number, test item, concentration and date of preparation. A description of appearance of formulation was recorded (e.g., color, turbidity, etc.). The composition of formulation vehicle was recorded. An aliquot of each dose solution was taken before the dosing began and after dosing was finished, and stored at approximately −20° C. or below for subsequent analysis. The animals were dosed orally through oral gavage needle, and time of dosing was recorded.
(§3) Liver Collection at 6 h or 24 h: Immediately after blood withdrawal for pharmacokinetic evaluation (at 6 or at 24 h), liver tissue was collected without perfusion. Animals were euthanized using carbon dioxide gas in a CO2 chamber. The whole blood was drained by cutting the both side jugular vein and abdominal aorta. The liver was separated out. All the liver samples were divided in two parts. The first part (200 mg approx.) was snap frozen using liquid nitrogen as soon as possible. These samples were immediately transferred to −80° C. for storage. The remaining part was weighed and used for bioanalysis.
RNA Processing and Gene Expression Analysis: Liver Tissue RNA was harvested with the RNEasy kit and 20-100 ng used to synthesize cDNA with random primers following the manufacturer's protocol. Quantitative PCR was performed on 1 pg to 100 ng cDNA for the following genes: ACACA, ACLY, FASN, LSS, PNPLA3. Gene expression levels were determined using ΔΔCT method comparing treated to vehicle treated samples as a baseline, and fold change calculated. The average value for all 5 genes above was averaged and termed to Total Fold Change The results from this evaluation are presented in Table 8.

[5] = Plasma and liver compound levels in mice after oral administration; type: in vivo; conditions: mouse, 30 mg/kg, 30 mpk
Description: as §1, §2
After dosing, the mice were anesthetized using gaseous anesthesia. Blood samples were collected through a capillary, guided in retro-orbital plexus, at 6 h or at 24 h. Approximately 100 uL of blood was collected from each mouse, in pre-labeled tubes. The collected blood was stored on ice prior to centrifugation. Blood samples were then centrifuged within 1 hour of collection to separate plasma. Centrifugation was conducted at 2500×g for 15 minutes at 4° C. The plasma was separated and transferred to pre-labeled micro-centrifuge tubes and promptly frozen at −80±10° C. until bioanalysis.
as §3

[6] = 10 mg/kg, heading: Oral Administration AUC0-last, PO, 10 mg/kg
[7] = IV, 2 mg/kg, read-out: Intravenous Delivery (IV) AUC0-last
[8] = IV, 2 mg/kg, read-out: Intravenous Delivery (IV) T1/2 (converted)
[9] = PO, 10 mg/kg, read-out: Oral Administration (PO) T1/2 (converted)

AUC(0-t) [2, 6] [ng·h/mL]	AUC(0-t) [2, 7] [ng·h/mL]	clearance ([2]; IV, 2 mg/kg) [mL/min/kg]	half-life [2, 8] [min]	Vd ([2]; IV, 2 mg/kg) [L/kg]	bioavailability [2] [%]	half-life [2, 9] [min]	Tmax ([2]; PO, 10 mg/kg) [min]	melting point [°C]	Structure (SMILES)	other results
272	2630	12.8	122	2.26	2.1	150	19.8	–	O=C(c1ccc(-c2cncc(-c3ccnc4c3OCCO4)c2)c(Cl)c1)N1CCC(O)CC1 [Compound Z-806, (3-chloro-4-(5-(2,3-dihydro-[1,4]dioxino[2,3-b]pyridin-8-yl)pyridin-3-yl)phenyl)(4-hydroxypiperidin-1-yl)methanone]	LogD [1]: 1.98; bioavailability [3]: 58%; AUC(0-t) ([3]; iv, 2 mg/kg): 1540 ng·h/mL; Vd ([3]; iv, 2 mg/kg): 8.91 L/kg; clearance ([3]; iv, 2 mg/kg): 21 mL/min/kg; half-life ([3]; iv, 2 mg/kg): 293 min; AUC(0-t) ([3]; po, 3 mg/kg): 1370 ng·h/mL; Tmax ([3]; po, 3 mg/kg): 15 min; half-life ([3]; po, 3 mg/kg): 211 min; Total Gene FC Time (6 h) ([4]; 6 h): ++ (0.51-0.7509 = ++); Total Gene FC Time (24 h) ([4]; 24 h): +++ (0-0.509 = +++); concentration at 6 h ([5]; liver, read-out: Liver ng/mg (6 h)): > 1e+06 ng/g; concentration at 24 h ([5]; liver, read-out: Liver ng/mg 24 h): > 1e+06 ng/g; concentration at 6 h ([5]; plasma, read-out: Plasma ng/mL (6 h)): > 1000 ng/mL; concentration at 24 h ([5]; plasma, read-out: Plasma ng/mL (24 h)): > 1000 ng/mL
–	–	–	–	–	–	–	–	105 to 109	COc1c(-c2ccnc(C(C)(C)C)c2)cncc1-c1ccc(C(=O)N2CCC(O)CC2)cc1Cl [Compound Z-840, (4-(2′-(tert-butyl)-4-methoxy-[3,4′-bipyridin]-5-yl)-3-chlorophenyl)(4-hydroxypiperidin-1-yl)methanone]	–
151	1070	31.7	54.6	2.54	2.8	41.4	30	100 to 104	CC(C)(C)c1cc(-c2cncc(-c3ccc(C(=O)N4CCC(O)CC4)cc3)c2F)ccn1 [Compound Z-866, (4-(2′-(tert-butyl)-4-fluoro-[3,4′-bipyridin]-5-yl)phenyl)(4-hydroxypiperidin-1-yl)methanone]	–
